Laboratory results reported in patent US10980778B2, “Methods for treating multiple osteochondroma (MO)” (Clementia Pharmaceuticals Inc., priority 2016, dated 2021).
Read-outs that look alike come from different tables or passages of the source.

Tests used:
[1] = system: Fsp1-Ext1^CKO mice; assay: Effect of palovarotene on osteochondroma (OC) formation, alcian blue whole-mount skeletal staining of rib bones; format: in vivo
Text: Biallelic conditional knock-out (CKO) of Ext1 using a Cre transgene driven by an Fsp1 promotor) (Fsp1-Ext1^CKO in mice leads to the formation of phenotypes characteristic of MO. Fsp1 expression in developing bone is restricted to the perichondrium and periosteum. Perichondrium-targeted Ext1 deletion in mice causes osteochondromatogenesis in long bones, vertebrae and ribs. Fsp1-Ext1^CKO mice appear normal at birth, present mild bone deformity by P (postnatal day) 28 and have normal life span. In these mice, bony protrusions consisting of bony tuberosities with a cartilage cap are first detectable after P14. These protrusions are consistent with the histological features of osteochondromas in human MO. By P28, all animals develop multiple osteochondromas that can be readily observed in whole-mount skeletal preparations. This phenotype supports the relevance of the Fsp1-Ext1^CKO mouse as a preclinical model of MO. It also mimics the findings observed in a previously developed mouse model of MO, the Col2a1-Ext1^CKO mice.
The therapeutic effect of palovarotene in MO was tested in the Fsp1-Ext1^CKO mouse model. The CKO mice were treated with palovarotene (1.05 mg/kg) or vehicle by oral gavage daily. Treatment was initiated on day 14 postpartum and continued daily for 4 weeks. The effect of palovarotene on the formation of osteochondromas (OCs) in the mouse model was evaluated using whole-mount skeletal preparation. At end of treatment, the mice were euthanized by CO2 inhalation and the carcasses were eviscerated and fixed in 95% ethanol overnight. The preparations were stained with alcian blue for 3 days, rinsed in 95% ethanol, and incubated in 2% KOH for 1-2 days. Stained preparations were cleaned in 20% glycerol/1% KOH for 14 days and transferred to 50% glycerol/50% ethanol for photography and storage. By examination under a dissecting microscope, an alcian blue-positive protrusion that was clearly distinguishable was considered as an OC. OCs were identified and counted in each of the 24 rib bones from each mouse.
The sum of these counts (total number of OCs at the rib bones) and the mean occurrence of response (number of rib bones showing no OCs vs. number of rib bones showing at least one OC) were reported for each treatment group.

[2] = system: Fsp1-Ext1CKO mice; assay: Crown-rump length in MO mouse model; format: in vivo
Procedure: Crown-rump length, defined as mouse body length from snout to base of the tail, was measured using a ruler in vehicle and palovarotene treated Fsp1-Ext1CKO mice and untreated wild-type (WT) littermates at baseline (Study Day 1) and, 3 and 4 weeks post initiation of palovarotene treatment (Study Day 21 and 28, respectively). As show in FIG. 3, palovarotene treatment had no effect on crown-rump length after 4 weeks of daily oral treatment in Fsp1-Ext1CKO mice compared to vehicle controls.

[3] = system: Fsp1-Ext1CKO mice; assay: Dose response of palovarotene to inhibit OC formation (P14 and P21 cohorts); format: in vivo; conditions: for EC50 at AUC0-24 hr (percent decrease in total OCs at rib and limb bones): extrapolated exposure
Procedure: Nonclinical pharmacology data: Fsp1-Ext1CKO mice were administered three doses of palovarotene (0.269 mg/kg [low], 0.882 mg/kg [mid], or 1.764 mg/kg [high]) for 28 consecutive days starting treatment at Day 14 postpartum (P14 cohort), or for 21 consecutive days starting at Day 21 postpartum (P21 cohort).
To determine the dose exposure response, exposure in this study was extrapolated based on pharmacokinetic data obtained from adult wild-type (WT) mice with the assumption that pharmacokinetics in adult WT mice are similar to juvenile Fsp1-Ext 1CKO mice.

[4] = Observed pharmacokinetic parameters, fixed and weight-based dosing regimen; format: in vivo, human; conditions: for AUC(0-t): human, in vivo, oral; for AUC Ratio (A/P) Mean (SD) / AUC Ratio (A/P) Median / AUC Ratio (A/P) Min / AUC Ratio (A/P) max: observed vs predicted
Procedure: Table 4 summarizes the pharmacokinetic parameters of mean and median AUC0-24 values for subjects receiving 2.5 mg and 5.0 mg equivalent doses of palovarotene. Skeletally mature subjects received fixed dose regimens, while the skeletally immature subjects <18 years old were dosed via weight adjusted equivalent doses.
One other parameter known to impact systemic exposure of palovarotene is food. For the clinical studies, all subjects are instructed to administer study medication at approximately the same time each day, and following a full meal, although the exact amount consumed is not recorded.

[5] = mean occurrence of 24 rib bones, 1.05 mg/kg daily × 28 days, p=0.0039 vs vehicle (Fisher's exact test)
[6] = PVO 2.5 mg Weight-Adjusted Equivalent
[7] = PVO 5 mg Weight-Adjusted Equivalent

## CC1(C)CCC(C)(C)c2cc(Cn3cccn3)c(/C=C/c3ccc(C(=O)O)cc3)cc21 [Palovarotene, 4-[(1E)-2-[5,6,7,8-Tetrahydro-5,5,8,8-tetramethyl-3-(1H-pyrazol-1-ylmethyl)-2-naphthalenyl]-ethenyl]-benzoic acid]
[1]; 1.05 mg/kg daily × 28 days, oral gavage from day 14 postpartum, n=9, vehicle 147.3
  Total number of OCs at the rib bones Mean (95% CI): 28.33 (23.23-33.43)
[1]; 1.05 mg/kg daily, 4 weeks, vs vehicle
  Effect on total number of OCs per rib bone and formation of OCs: reduced the total number of OCs per rib bone and prevent the formation of OCs
[1]; [5]
  Number of rib bones showing at least one OC: 16
  Number of rib bones showing no OC: 8
[1]; summary of the Examples
  Cartilage hyperplasia: reduced cartilage hyperplasia
  Number and size of osteochondromas observed: reduced the number and size of osteochondromas observed
[2]; after 4 weeks of daily oral treatment, compared to vehicle controls
  Effect on crown-rump length: no effect
[2]; summary of the Examples
  Long bone growth: able to maintain long bone growth
  Normal bone growth in the animal: did not interfere with normal bone growth
[3]; 0.269, 0.882 or 1.764 mg/kg, 28 days from P14 or 21 days from P21, vs vehicle controls
  Occurrence of OCs: inhibited the occurrence of OCs in a dose-dependent manner
[3]; 28 days from P14 vs 21 days from P21
  Efficacy P14 cohort compared to P21 cohort: Greater efficacy was observed with earlier and longer dosing in the P14 cohort
[3]; P14 cohort
  EC50 at AUC0-24 hr (percent decrease in total OCs at rib and limb bones): 57 to 62 ng·h/mL
[3]; P21 cohort
  EC50 at AUC0-24 hr (percent decrease in total OCs at rib and limb bones): 125 to 173 ng·h/mL
[4]; 2.5 mg and 5.0 mg equivalent doses, few subjects in 2.5 mg group
  Observed exposures using weight based dosing compared with fixed dosing: tended to be lower than fixed dosing
[4]; 2.5 mg, PVO 2.5 mg Fixed Dose, N=4, read-out: AUC0-24 h Mean (SD)
  AUC(0-t): 176 ng·h/mL
[4]; 2.5 mg, PVO 2.5 mg Fixed Dose, N=4, read-out: AUC0-24 h Median
  AUC(0-t): 149 ng·h/mL
[4]; 2.5 mg, PVO 2.5 mg Fixed Dose, N=4, read-out: AUC0-24 h Min
  AUC(0-t): 107 ng·h/mL
[4]; 2.5 mg, PVO 2.5 mg Fixed Dose, N=4, read-out: AUC0-24 h max
  AUC(0-t): 31 ng·h/mL
[4]; 2.5 mg, PVO 2.5 mg Weight-Adjusted Equivalent, N=3, read-out: AUC0-24 h Mean (SD)
  AUC(0-t): 98 ng·h/mL
[4]; 2.5 mg, PVO 2.5 mg Weight-Adjusted Equivalent, N=3, read-out: AUC0-24 h Median
  AUC(0-t): 78 ng·h/mL
[4]; 2.5 mg, PVO 2.5 mg Weight-Adjusted Equivalent, N=3, read-out: AUC0-24 h Min
  AUC(0-t): 37 ng·h/mL
[4]; 2.5 mg, PVO 2.5 mg Weight-Adjusted Equivalent, N=3, read-out: AUC0-24 h max
  AUC(0-t): 179 ng·h/mL
[4]; 5 mg, PVO 5 mg Fixed Dose, N=15, read-out: AUC0-24 h Mean (SD)
  AUC(0-t): 347 ng·h/mL
[4]; 5 mg, PVO 5 mg Fixed Dose, N=15, read-out: AUC0-24 h Median
  AUC(0-t): 320 ng·h/mL
[4]; 5 mg, PVO 5 mg Fixed Dose, N=15, read-out: AUC0-24 h Min
  AUC(0-t): 144 ng·h/mL
[4]; 5 mg, PVO 5 mg Fixed Dose, N=15, read-out: AUC0-24 h max
  AUC(0-t): 667 ng·h/mL
[4]; 5 mg, PVO 5 mg Weight-Adjusted Equivalent, N=6, read-out: AUC0-24 h Mean (SD)
  AUC(0-t): 249 ng·h/mL
[4]; 5 mg, PVO 5 mg Weight-Adjusted Equivalent, N=6, read-out: AUC0-24 h Median
  AUC(0-t): 218 ng·h/mL
[4]; 5 mg, PVO 5 mg Weight-Adjusted Equivalent, N=6, read-out: AUC0-24 h Min
  AUC(0-t): 139 ng·h/mL
[4]; 5 mg, PVO 5 mg Weight-Adjusted Equivalent, N=6, read-out: AUC0-24 h max
  AUC(0-t): 363 ng·h/mL
[4]; PVO 2.5 mg Fixed Dose
  AUC Ratio (A/P) Mean (SD): 1.1 (0.7)
  AUC Ratio (A/P) Median: 0.9
  AUC Ratio (A/P) Min: 0.6
  AUC Ratio (A/P) max: 2.1
[4]; [6]
  AUC Ratio (A/P) Mean (SD): 0.8 (0.6)
  AUC Ratio (A/P) Median: 0.6
  AUC Ratio (A/P) Min: 0.3
  AUC Ratio (A/P) max: 1.4
[4]; PVO 5 mg Fixed Dose
  AUC Ratio (A/P) Mean (SD): 1.3 (0.7)
  AUC Ratio (A/P) Median: 1.1
  AUC Ratio (A/P) Min: 0.6
  AUC Ratio (A/P) max: 2.9
[4]; [7]
  AUC Ratio (A/P) Mean (SD): 1.0 (0.3)
  AUC Ratio (A/P) Median: 0.9
  AUC Ratio (A/P) Min: 0.5
  AUC Ratio (A/P) max: 1.4
[4]; overall, observed vs predicted exposures
  AUCA/P ratio: ~1
